The source of these data is patent US6410530B1, “Substituted 1,2,3,4-tetrahydronaphthalene derivatives” (AstraZeneca AB, priority 1996, dated 2002).

`Cc1cc(C(=O)N[C@@H]2CCc3cccc(N4CCN(C)CC4)c3C2)ccc1N1CCOCC1` [Example 61, (R)-N-[8-(4-Methylpiperazin-1-yl)-1,2,3,4-tetrahydro-2-naphthyl]-3-methyl-4-morpholinobenzamide] yielded a melting point of 172 to 175 °C.

On to `CN1CCN(c2cccc3c2C[C@H](NC(=O)c2ccc(-n4cccc4)cc2)CC3)CC1` [Example 78, (R)-N-[8-(4-Methylpiperazin-1-yl)-1,2,3,4-tetrahydro-2-naphthyl]-4-(1H-pyrrol-1-yl)benzamide], for which the melting point is 245 to 247 °C.

Consider `O=C(N[C@@H]1CCc2cccc(N3CCNCC3)c2C1)c1ccc(N2CCOCC2)cc1` [Example 53, (R)-N-[8-(Piperazin-1-yl)-1,2,3,4-tetrahydro-2-naphthyl]-4-morpholinobenzamide], for which the melting point lay in the range of 202 to 203 °C.

The compound `CN1CCN(c2cccc3c2C[C@H](NC(=O)c2ccc(C(=O)c4ccccc4)cc2)CC3)CC1` [Example 76, (R)-N-[8-(4-Methylpiperazin-1-yl)-1,2,3,4-tetrahydro-2-naphthyl]-4-benzoylbenzamide] gave a melting point of 194 to 195 °C.

For the compound `CN1CCN(c2cccc3c2C[C@H](NC(=O)c2ccc(C(F)(F)F)cc2)CC3)CC1` [Example 65, (R)-N-[8-(4-Methylpiperazin-1-yl)-1,2,3,4-tetrahydro-2-naphthyl]-4-trifluoromethylbenzamide], the melting point lay within 203 to 204 °C.

For the compound `CN1CCC(c2cccc3c2C[C@H](NC(=O)c2ccc(N4CCOCC4)cc2)CC3)CC1` [Example 101, (R)-N-[8-(1-Methylpiperidin-4-yl)-1,2,3,4-tetrahydro-2-naphthyl]-4-morpholinobenzamide], the melting point was in the range of 196 to 198 °C.

`CCN1CCN(c2cccc3c2C[C@H](NC(C)=O)CC3)CC1` gave a melting point of 142 to 143 °C.

Take `CCCCN1CCN(c2cccc3c2C[C@H](NC(C)=O)CC3)CC1` [Example 27, (R)-N-[8-(4-Butylpiperazin-1-yl)-1,2,3,4-tetrahydro-2-naphthyl]acetamide]: the melting point was 118 to 120 °C.

Compound `CN1CCN(c2cccc3c2C[C@H](NC(=O)c2ccc(Br)cc2)CC3)CC1` [Example 73, (R)-N-[8-(4-Methylpiperazin-1-yl)-1,2,3,4-tetrahydro-2-naphthyl]-4-bromobenzamide] yielded a melting point of 200 to 201 °C.

`CN1CCN(c2cccc3c2C[C@H](NC(=O)C2CCCCC2)CC3)CC1` [Example 36, (R)-N-[8-(4-Methylpiperazin-1-yl)-1,2,3,4-tetrahydro-2-naphthyl]cyclohexanecarboxamide]: the melting point is 183 to 184 °C.

`CN1CCN(c2cccc3c2C[C@H](NC(=O)c2ccc(Cc4ccccc4)cc2)CC3)CC1` [Example 75, (R)-N-[8-(4-Methylpiperazin-1-yl)-1,2,3,4-tetrahydro-2-naphthyl]-4-benzylbenzamide] showed a melting point of 191 to 192 °C.

In the case of `CN1CCN(c2cccc3c2C[C@H](NC(=O)CCCc2ccccc2)CC3)CC1` [Example 82, (R)-N-[8-(4-Methylpiperazin-1-yl)-1,2,3,4-tetrahydro-2-naphthyl]-4-phenylbutanamide], the melting point is 137 to 139 °C.

In the case of `Cc1ccccc1C(=O)N[C@@H]1CCc2cccc(N3CCN(C)CC3)c2C1` [Example 90, (R)-N-[8-(4-Methylpiperazin-1-yl)-1,2,3,4-tetrahydro-2-naphthyl]-2-methylbenzamide], the melting point was 179 to 180 °C.

`COc1ccc(C(=O)N[C@@H]2CCc3cccc(N4CCN(C)CC4)c3C2)cc1` [Example 49, (R)-N-[8-(4-Methylpiperazin-1-yl)-1,2,3,4-tetrahydro-2-naphthyl]-4-methoxybenzamide] yielded a melting point of 186 to 187 °C.

In turn, `CN1CCN(c2cccc3c2C[C@H](NC(=O)C(F)(F)F)CC3)CC1` yielded a melting point of 158 to 159 °C.

`CN1CCN(c2cccc3c2C[C@H](NC(=O)c2ccccc2)CC3)CC1` [Example 48, (R)-N-[8-(4-Methylpiperazin-1-yl)-1,2,3,4-tetrahydro-2-naphthyl]benzamide]: the melting point lay in the range of 195 to 196 °C.
